Reference: patent US4728725A, “Retro-inverted peptides analogues of Bradykinin Potentiator BPP5a” (Enichem, S.p.A., priority 1984, dated 1988)
Where no end group is shown, it is not given here. [ ]: non-standard residue; d: D form. pGlu = O=C1CC[C@@H](C(=O)O)N1

Legend:
[1] = molecular target: T1, angiotensin conversion enzyme (Oryctolagus cuniculus, UniProt P12822); assay: Inhibition of angiotensin conversion enzyme in vitro (method of Cushman and Cheung); type: biochemical; settings: enzyme isolated from rabbit lungs; read-out: I50
T1 construct: with the enzyme isolated from rabbit lungs; from tissue; host or cells: rabbit lungs
T1 sequence (P12822 34-1310): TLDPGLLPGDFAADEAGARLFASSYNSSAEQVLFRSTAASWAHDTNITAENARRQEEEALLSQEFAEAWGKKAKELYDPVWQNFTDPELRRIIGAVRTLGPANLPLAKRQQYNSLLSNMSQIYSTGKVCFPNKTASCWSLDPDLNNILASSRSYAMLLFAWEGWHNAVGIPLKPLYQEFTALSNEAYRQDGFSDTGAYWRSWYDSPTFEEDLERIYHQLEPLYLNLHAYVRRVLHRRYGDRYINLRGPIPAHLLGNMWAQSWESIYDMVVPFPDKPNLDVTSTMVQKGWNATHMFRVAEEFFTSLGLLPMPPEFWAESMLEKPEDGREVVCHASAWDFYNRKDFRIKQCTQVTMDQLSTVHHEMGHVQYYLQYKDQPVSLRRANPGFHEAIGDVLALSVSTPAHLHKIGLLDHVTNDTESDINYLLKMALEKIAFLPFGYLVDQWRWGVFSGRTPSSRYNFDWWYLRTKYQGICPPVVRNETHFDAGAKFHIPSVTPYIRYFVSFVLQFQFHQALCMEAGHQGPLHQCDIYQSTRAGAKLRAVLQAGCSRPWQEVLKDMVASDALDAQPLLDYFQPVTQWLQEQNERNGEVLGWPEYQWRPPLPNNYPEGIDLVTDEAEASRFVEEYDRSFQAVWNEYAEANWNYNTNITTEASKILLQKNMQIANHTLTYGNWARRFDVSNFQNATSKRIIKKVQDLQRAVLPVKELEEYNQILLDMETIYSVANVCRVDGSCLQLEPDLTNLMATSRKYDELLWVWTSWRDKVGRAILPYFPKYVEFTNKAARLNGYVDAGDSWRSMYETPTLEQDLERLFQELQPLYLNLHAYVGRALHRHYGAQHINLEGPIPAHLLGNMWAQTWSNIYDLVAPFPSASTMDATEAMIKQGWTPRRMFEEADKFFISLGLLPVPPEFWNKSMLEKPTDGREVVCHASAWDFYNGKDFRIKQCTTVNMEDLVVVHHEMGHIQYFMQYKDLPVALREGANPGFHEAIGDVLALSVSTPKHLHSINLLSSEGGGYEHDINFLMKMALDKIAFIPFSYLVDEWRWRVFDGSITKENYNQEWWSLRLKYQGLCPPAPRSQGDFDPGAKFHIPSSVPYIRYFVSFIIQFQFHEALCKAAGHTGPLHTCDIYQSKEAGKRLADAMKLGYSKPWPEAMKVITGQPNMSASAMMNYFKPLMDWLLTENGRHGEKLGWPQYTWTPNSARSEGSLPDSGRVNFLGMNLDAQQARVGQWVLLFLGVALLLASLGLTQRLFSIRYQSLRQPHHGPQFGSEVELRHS
Description: The inhibition of angiotensin conversion enzyme by the compounds corresponding to general formula (I) is measured, in vitro, with the enzyme isolated from rabbit lungs according to the method by Cushman and Cheung [Biochem.-Pharmacol., 20, 1637, (1971)].
In Table 1 the values of I50 (μM) obtained by using the retroinverted analogues and natural not-modified peptide, which is used as the comparison term, are reported.

[2] = tested on: angiotensin conversion enzyme and peptidases; assay: Stability: resistance of peptides to angiotensin conversion enzyme and to peptidases; type: in vitro ADME; settings: after 3 hours of incubation
Excerpt: The stability of peptides of formula (B) and (C) has been verified by determining the resistance of said peptides to the angiotensin conversion enzyme and to peptidases.

[3] = tested on: angiotensin conversion enzyme; settings: 15 minutes of preincubation with the enzyme; cited from earlier work

Compound	IC50 [1] [µM]	resistance towards enzymatic degradation [2]	loss of inhibiting activity [3]
C[C@@H](C(=O)N[C@H](Cc1ccccc1)C(=O)N[C@H](CCCCN)C(=O)N[C@@H]1CCC(=O)N1)C(=O)N1C[C@@H](Sc2ccccc2)C[C@H]1C(=O)O [B, gGlp--Dlys--DPhe--(S)m Ala--Pro--(4-allo--SPh)--OH]	7.5	resistant	
Glp-Lys-Trp-Ala-Pro ([pGlu]KWAP) [BPP5a]			complete loss
